{
  "source": "PubChem BioAssay AID588803",
  "about": "(The Scripps Research Institute Molecular Screening Center, 2011)",
  "experiment_in_all_cases": "in-cell serine hydrolase inhibition profile, late-stage follow-up, selectivity assay for PME-1 inhibitor project, ABPP-SILAC, LC-MS/MS, mouse cells (AID 588803)",
  "key": {"Abhd11": {"system": "Abhd11", "details": "serine hydrolase ratios, stronger effect = lower value"}, "Abhd12": {"system": "Abhd12", "details": "serine hydrolase ratios, stronger effect = lower value"}, "Ache": {"system": "Ache", "details": "serine hydrolase ratios, stronger effect = lower value"}, "Acot1": {"system": "Acot1", "details": "serine hydrolase ratios, stronger effect = lower value"}, "Acot2": {"system": "Acot2", "details": "serine hydrolase ratios, stronger effect = lower value"}, "Acot7": {"system": "Acot7", "details": "serine hydrolase ratios, stronger effect = lower value"}, "Acot9": {"system": "Acot9", "details": "serine hydrolase ratios, stronger effect = lower value"}, "[1]": {"target": "Acyl-protein thioesterase 1 (Mus musculus) (UniProt P97823)", "sequence (P97823 whole entry, looked up)": "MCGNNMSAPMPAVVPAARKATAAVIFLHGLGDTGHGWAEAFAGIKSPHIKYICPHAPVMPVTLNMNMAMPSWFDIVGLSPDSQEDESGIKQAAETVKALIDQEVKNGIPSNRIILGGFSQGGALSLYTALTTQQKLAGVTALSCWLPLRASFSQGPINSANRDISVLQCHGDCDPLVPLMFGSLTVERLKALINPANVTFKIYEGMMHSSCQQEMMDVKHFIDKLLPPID", "details": "serine hydrolase ratios, Lypla1, stronger effect = lower value"}, "Apeh": {"system": "Apeh", "details": "serine hydrolase ratios, stronger effect = lower value"}, "Bat5": {"system": "Bat5", "details": "serine hydrolase ratios, stronger effect = lower value"}, "Ctsa": {"system": "Ctsa", "details": "serine hydrolase ratios, stronger effect = lower value"}, "Ddhd2": {"system": "Ddhd2", "details": "serine hydrolase ratios, stronger effect = lower value"}, "Dpp7": {"system": "Dpp7", "details": "serine hydrolase ratios, stronger effect = lower value"}, "Dpp8": {"system": "Dpp8", "details": "serine hydrolase ratios, stronger effect = lower value"}, "Dpp9": {"system": "Dpp9", "details": "serine hydrolase ratios, stronger effect = lower value"}, "Faah": {"system": "Faah", "details": "serine hydrolase ratios, stronger effect = lower value"}, "Fam108b1": {"system": "Fam108b1", "details": "serine hydrolase ratios, stronger effect = lower value"}, "Fasn": {"system": "Fasn", "details": "serine hydrolase ratios, stronger effect = lower value"}, "Htra2": {"system": "Htra2", "details": "serine hydrolase ratios, stronger effect = lower value"}, "Iah1": {"system": "Iah1", "details": "serine hydrolase ratios, stronger effect = lower value"}, "Lypla2": {"system": "Lypla2", "details": "serine hydrolase ratios, stronger effect = lower value"}, "Lyplal1": {"system": "Lyplal1", "details": "serine hydrolase ratios, stronger effect = lower value"}, "[2]": {"target": "Monoacylglycerol lipase ABHD6 (Mus musculus) (UniProt Q8R2Y0)", "sequence (Q8R2Y0 whole entry, looked up)": "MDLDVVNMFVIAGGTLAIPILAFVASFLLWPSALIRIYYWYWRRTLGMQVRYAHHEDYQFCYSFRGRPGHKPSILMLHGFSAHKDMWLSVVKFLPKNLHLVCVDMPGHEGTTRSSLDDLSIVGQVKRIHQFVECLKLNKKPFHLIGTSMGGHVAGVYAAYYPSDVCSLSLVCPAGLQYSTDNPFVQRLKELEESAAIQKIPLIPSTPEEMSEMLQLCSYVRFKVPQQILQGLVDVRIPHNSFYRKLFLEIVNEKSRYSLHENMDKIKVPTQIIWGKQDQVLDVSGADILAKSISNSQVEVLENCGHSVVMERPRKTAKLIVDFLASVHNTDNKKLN", "details": "serine hydrolase ratios, stronger effect = lower value"}, "Nceh1": {"system": "Nceh1", "details": "serine hydrolase ratios, stronger effect = lower value"}, "Pafah1b2": {"system": "Pafah1b2", "details": "serine hydrolase ratios, stronger effect = lower value"}, "Pafah1b3": {"system": "Pafah1b3", "details": "serine hydrolase ratios, stronger effect = lower value"}, "[3]": {"target": "Palmitoyl-protein thioesterase ABHD10, mitochondrial (Mus musculus) (UniProt Q6PE15)", "sequence (Q6PE15 whole entry, looked up)": "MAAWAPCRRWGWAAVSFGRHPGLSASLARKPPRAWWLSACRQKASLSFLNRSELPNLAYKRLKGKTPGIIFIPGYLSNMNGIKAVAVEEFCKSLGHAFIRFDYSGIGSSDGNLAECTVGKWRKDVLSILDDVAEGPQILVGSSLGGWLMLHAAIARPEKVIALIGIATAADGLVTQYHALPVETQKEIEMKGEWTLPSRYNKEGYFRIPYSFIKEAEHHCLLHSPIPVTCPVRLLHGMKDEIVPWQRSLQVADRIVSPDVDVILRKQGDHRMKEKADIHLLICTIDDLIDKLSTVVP", "details": "serine hydrolase ratios, stronger effect = lower value"}, "Parl": {"system": "Parl", "details": "serine hydrolase ratios, stronger effect = lower value"}, "Pgap1": {"system": "Pgap1", "details": "serine hydrolase ratios, stronger effect = lower value"}, "Pla2g15": {"system": "Pla2g15", "details": "serine hydrolase ratios, stronger effect = lower value"}, "Pla2g6": {"system": "Pla2g6", "details": "serine hydrolase ratios, stronger effect = lower value"}, "[4]": {"target": "Platelet-activating factor acetylhydrolase 2, cytoplasmic (Mus musculus) (UniProt Q8VDG7)", "sequence (Q8VDG7 whole entry, looked up)": "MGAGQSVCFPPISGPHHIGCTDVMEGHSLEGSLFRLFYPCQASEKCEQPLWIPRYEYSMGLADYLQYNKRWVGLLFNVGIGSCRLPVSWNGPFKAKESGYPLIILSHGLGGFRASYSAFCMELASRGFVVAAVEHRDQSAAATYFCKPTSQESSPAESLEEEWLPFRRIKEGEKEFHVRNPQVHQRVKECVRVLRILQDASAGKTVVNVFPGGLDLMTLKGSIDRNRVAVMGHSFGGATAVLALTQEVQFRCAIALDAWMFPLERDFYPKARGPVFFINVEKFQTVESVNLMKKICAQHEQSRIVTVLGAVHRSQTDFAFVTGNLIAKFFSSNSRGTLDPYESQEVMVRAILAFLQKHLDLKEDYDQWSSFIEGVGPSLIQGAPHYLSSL", "details": "serine hydrolase ratios, Pafah2, stronger effect = lower value"}, "Pme1": {"system": "Pme1", "details": "serine hydrolase ratios, stronger effect = lower value"}, "Pnpla8": {"system": "Pnpla8", "details": "serine hydrolase ratios, stronger effect = lower value"}, "Ppt2": {"system": "Ppt2", "details": "serine hydrolase ratios, stronger effect = lower value"}, "Prcp": {"system": "Prcp", "details": "serine hydrolase ratios, stronger effect = lower value"}, "Prepl": {"system": "Prepl", "details": "serine hydrolase ratios, stronger effect = lower value"}, "[5]": {"target": "Prolyl endopeptidase (Mus musculus) (UniProt Q9QUR6)", "sequence (Q9QUR6 whole entry, looked up)": "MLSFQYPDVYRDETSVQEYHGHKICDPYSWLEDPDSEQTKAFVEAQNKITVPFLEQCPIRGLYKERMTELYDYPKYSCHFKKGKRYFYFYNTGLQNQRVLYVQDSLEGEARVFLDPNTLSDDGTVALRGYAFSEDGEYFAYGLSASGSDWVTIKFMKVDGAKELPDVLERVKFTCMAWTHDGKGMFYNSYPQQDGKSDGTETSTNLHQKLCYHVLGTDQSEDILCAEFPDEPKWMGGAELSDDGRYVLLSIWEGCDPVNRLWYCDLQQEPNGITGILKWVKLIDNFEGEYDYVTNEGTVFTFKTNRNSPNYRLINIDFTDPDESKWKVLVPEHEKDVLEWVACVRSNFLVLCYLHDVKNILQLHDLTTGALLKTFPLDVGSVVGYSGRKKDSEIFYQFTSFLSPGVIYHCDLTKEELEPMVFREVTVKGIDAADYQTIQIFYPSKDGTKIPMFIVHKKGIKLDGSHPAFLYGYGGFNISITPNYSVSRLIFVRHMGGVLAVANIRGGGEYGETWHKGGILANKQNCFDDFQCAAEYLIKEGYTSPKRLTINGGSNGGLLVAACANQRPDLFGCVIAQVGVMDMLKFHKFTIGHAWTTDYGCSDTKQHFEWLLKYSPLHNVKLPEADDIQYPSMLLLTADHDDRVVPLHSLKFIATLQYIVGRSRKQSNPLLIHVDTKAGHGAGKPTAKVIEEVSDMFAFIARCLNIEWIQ", "details": "serine hydrolase ratios, Prep, stronger effect = lower value"}, "Rbbp9": {"system": "Rbbp9", "details": "serine hydrolase ratios, stronger effect = lower value"}, "Serhl": {"system": "Serhl", "details": "serine hydrolase ratios, stronger effect = lower value"}},
  "note": "Calls of active or inactive are those of the source. How the calls were made is not given here.",
  "data": [
    {"smiles": "COC(=O)N1C(=O)[C@](c2ccccc2)(C2CCCC2)N1C(=O)OC", "values": [
      {"measurement": "SILAC ratio (probe labeling remaining)", "setting": "Abhd11", "value": "0.946 (inactive)"},
      {"measurement": "SILAC ratio (probe labeling remaining)", "setting": "Abhd12", "value": "1.13 (inactive)"},
      {"measurement": "SILAC ratio (probe labeling remaining)", "setting": "Ache", "value": "0.689 (inactive)"},
      {"measurement": "SILAC ratio (probe labeling remaining)", "setting": "Acot1", "value": "0.914 (inactive)"},
      {"measurement": "SILAC ratio (probe labeling remaining)", "setting": "Acot2", "value": "0.873 (inactive)"},
      {"measurement": "SILAC ratio (probe labeling remaining)", "setting": "Acot7", "value": "1.32 (inactive)"},
      {"measurement": "SILAC ratio (probe labeling remaining)", "setting": "Acot9", "value": "0.889 (inactive)"},
      {"measurement": "SILAC ratio (probe labeling remaining)", "setting": "[1]", "value": "1 (inactive)"},
      {"measurement": "SILAC ratio (probe labeling remaining)", "setting": "Apeh", "value": "0.821 (inactive)"},
      {"measurement": "SILAC ratio (probe labeling remaining)", "setting": "Bat5", "value": "1.06 (inactive)"},
      {"measurement": "SILAC ratio (probe labeling remaining)", "setting": "Ctsa", "value": "0.869 (inactive)"},
      {"measurement": "SILAC ratio (probe labeling remaining)", "setting": "Ddhd2", "value": "1.19 (inactive)"},
      {"measurement": "SILAC ratio (probe labeling remaining)", "setting": "Dpp7", "value": "0.846 (inactive)"},
      {"measurement": "SILAC ratio (probe labeling remaining)", "setting": "Dpp8", "value": "0.859 (inactive)"},
      {"measurement": "SILAC ratio (probe labeling remaining)", "setting": "Dpp9", "value": "0.937 (inactive)"},
      {"measurement": "SILAC ratio (probe labeling remaining)", "setting": "Faah", "value": "1.06 (inactive)"},
      {"measurement": "SILAC ratio (probe labeling remaining)", "setting": "Fam108b1", "value": "1.2 (inactive)"},
      {"measurement": "SILAC ratio (probe labeling remaining)", "setting": "Fasn", "value": "0.971 (inactive)"},
      {"measurement": "SILAC ratio (probe labeling remaining)", "setting": "Htra2", "value": "1.07 (inactive)"},
      {"measurement": "SILAC ratio (probe labeling remaining)", "setting": "Iah1", "value": "1 (inactive)"},
      {"measurement": "SILAC ratio (probe labeling remaining)", "setting": "Lypla2", "value": "0.927 (inactive)"},
      {"measurement": "SILAC ratio (probe labeling remaining)", "setting": "Lyplal1", "value": "1.29 (inactive)"},
      {"measurement": "SILAC ratio (probe labeling remaining)", "setting": "[2]", "value": "0.98 (inactive)"},
      {"measurement": "SILAC ratio (probe labeling remaining)", "setting": "Nceh1", "value": "1.01 (inactive)"},
      {"measurement": "SILAC ratio (probe labeling remaining)", "setting": "Pafah1b2", "value": "0.887 (inactive)"},
      {"measurement": "SILAC ratio (probe labeling remaining)", "setting": "Pafah1b3", "value": "0.962 (inactive)"},
      {"measurement": "SILAC ratio (probe labeling remaining)", "setting": "[3]", "value": "0.951 (inactive)"},
      {"measurement": "SILAC ratio (probe labeling remaining)", "setting": "Parl", "value": "0.995 (inactive)"},
      {"measurement": "SILAC ratio (probe labeling remaining)", "setting": "Pgap1", "value": "1.1 (inactive)"},
      {"measurement": "SILAC ratio (probe labeling remaining)", "setting": "Pla2g15", "value": "1.01 (inactive)"},
      {"measurement": "SILAC ratio (probe labeling remaining)", "setting": "Pla2g6", "value": "0.796 (inactive)"},
      {"measurement": "SILAC ratio (probe labeling remaining)", "setting": "[4]", "value": "0.913 (inactive)"},
      {"measurement": "SILAC ratio (probe labeling remaining)", "setting": "Pme1", "value": 0},
      {"measurement": "SILAC ratio (probe labeling remaining)", "setting": "Pnpla8", "value": "1.09 (inactive)"},
      {"measurement": "SILAC ratio (probe labeling remaining)", "setting": "Ppt2", "value": "0.812 (inactive)"},
      {"measurement": "SILAC ratio (probe labeling remaining)", "setting": "Prcp", "value": "0.717 (inactive)"},
      {"measurement": "SILAC ratio (probe labeling remaining)", "setting": "Prepl", "value": "0.931 (inactive)"},
      {"measurement": "SILAC ratio (probe labeling remaining)", "setting": "[5]", "value": "1.01 (inactive)"},
      {"measurement": "SILAC ratio (probe labeling remaining)", "setting": "Rbbp9", "value": "1.06 (inactive)"},
      {"measurement": "SILAC ratio (probe labeling remaining)", "setting": "Serhl", "value": "1.12 (inactive)"}
    ]}
  ]
}
